Article PMC7077720, “Improvement of Peptide Affinity and Stability by Complexing to Cyclodextrin-Grafted Ammonium Chitosan” (Polymers, 2020)
Where a SMILES comes first, the peptide text is derived from it. [ ]: non-standard residue; d: D form.

Columns and labels:
[1] = Complex association constant (Benesi–Hildebrand method), fluorescence spectrometry; assay type: binding; conditions: rounded value quoted in text; technique not named at the place
Method: Complex association constant (Ka) was determined by spectrometric titration based on the Benesi–Hildebrand method and performed both by UV-VIS and fluorescence spectrometry. Two sets of dilutions were prepared (Tables S2–S5, Supplementary material). In the case of UV spectrometry, 275 μM DAL was kept, whereas MCD concentrations varied, either as MCD alone or as conjugated (N^+-rCh-MCD). The solutions were prepared and analyzed after being equilibrated for 1 h at room temperature. UV spectra in the range 220–325 nm were collected, and the intensity of absorbance at 282 nm was normalized on the correspondent value at 247 nm. Diversely, for fluorescence spectroscopy evaluations, DAL concentration was kept at 70 μM, and samples were analyzed by using a PerkinElmer LS 45 fluorimeter, with excitation λ set at 270 nm and the emission spectrum collected between 340 and 270 nm. The variation of fluorescence intensity was evaluated at 304 nm, and it was normalized on 285 nm. […]
The determination of the association constant (Ka) for complexes of DAL/MCD and of DAL/N^+-rCh-MCD was performed both by UV and fluorescence spectrometry. Both techniques exploited the gradual variation of DAL absorbance or fluorescence in the presence of increasing amounts of host agent. […]

α-chymotrypsin (CHT) [2] = target: T1, α-chymotrypsin (CHT) (Bos taurus, UniProt P00766); assay: Enzymatic hydrolysis of DAL by α-chymotrypsin followed by 1H NMR; assay type: in vitro ADME
T1 construct: purchased Sigma-Aldrich (St. Louis, MO, USA)
Method: The same DAL/enzyme ratio and concentrations of components selected for HPLC were used in NMR analysis at 37 °C through the entire digestion process. DAL and α-chymotrypsin stock solutions were prepared in phosphate buffer (pH = 6.8) and mixed directly into the NMR tube containing predissolved polymers at 40 °C for 2 h.
By using the same DAL/CHT molar ratio selected for HPLC analysis, low and high frequency NMR spectral regions of dalargin, pure (Figure 7a) and in presence of CHT (Figure 7b, c), were monitored over time at 37 °C. In the binary mixture DAL/CHT, a rapid decrease of the original dalargin signals was observed already after 5 min with the simultaneous formation of new peaks, which was attributable to the digestion products. […] In order to obtain a quantitative parameter, we refer to the lifetime of the drug (tf), the specific time in which non-degraded DAL reached 6% with respect to the hydrolyzed products. If the mixture is maintained at room temperature (25 °C), the tf of DAL is extended up to 45 min, owing to a reduced activity of the enzyme.

Caco-2 monolayers = assay: In vitro protection from enzymatic degradation on Caco-2 monolayers; assay type: in vitro ADME, human; conditions: DAL 50 μg/mL applied apically in HBSS, 37 °C, HPLC, three experiments
Method: A Caco-2 monolayer was obtained by cell seeding (10^5 cells/well) on a polycarbonate membrane filter (pore size 0.4 μm, area 1.12 cm^2) in Corning Transwell, 12-well plates (Sigma-Aldrich, Saint Louis, MO, USA). Thereafter, 0.5 and 1.5 mL of culture medium was added to apical and basolateral compartments of the transwell inserts, respectively; the culture medium was replaced every two days for 24 days. As a rule, the experiments were performed with Caco-2 monolayers that have been grown on filter inserts for 21–29 days. By day 21, the monolayers have become differentiated with regard to the expression of many transport proteins, enzymes, and brush border hydrolases. The TransEpithelial Electrical Resistance (TEER, Ωcm^2) across the Caco-2 monolayer was determined by measuring the potential difference between the apical and basolateral sides of the transwell using the Millicell-ERS (Millipore, Milano, Italy). TEER was measured prior to each experiment to ensure the confluence of the monolayers, during transport studies (every 30 min), and at 24 h from the samples’ removal to assess monolayer stability recovery. Experiments were performed by using DAL-containing samples, which had either DAL alone or the presence of polymers and cyclodextrin. […] At the end of the experiment (3 h), the apical chambers media were collected and analyzed by HPLC for DAL content evaluation.

[3] = Stability of pure DAL in water by 1H NMR; assay type: physicochemical; conditions: 37 °C, several days, 1H NMR chemical shifts and integrated areas
α-chymotrypsin (CHT) [4] = target: T1, α-chymotrypsin (CHT); assay: Stability under enzymatic hydrolysis by α-chymotrypsin, residual DAL by HPLC; assay type: in vitro ADME; conditions: 37 °C
Method: GPC (Gel permeation chromatography) and HPLC analyses were carried out with a Perkin-Elmer instrument (Perkin-Elmer, Waltham, MA, USA), consisting of a Series 200 LC-290 AT pump, Rheodyne injector with a loop of 20 μL, UV-VIS SPD–6 AV detector, and Turbochrom Navigator software (Turbochrom 6.1, Perkin-Elmer, Waltham, MA, USA ). For GPC analyses, the standard pullulans were employed; the stationary phase was an X-stream H2O Mixed Bed 50 × 4.6 mm column, the mobile phase was acetate buffer 0.5 M (pH = 2.9), and the wavelength of the detector was set to 237 nm. For HPLC, the suitable mobile phase result was H2O:CH3CN = 70:30, the column was a C18 Aquapore OD-300 (Perkin-Elmer, Waltham, MA, USA) 7 µm 4.6 × 250 mm, and the wavelength of the detector was set to 227 nm.
Stock solutions of dalargin (1 mg/mL) either alone or as a 1:1 complex with MCD or polymers were mixed with α-chymotrypsin (0.36 mg/mL) solutions to obtain 0.50 mg/mL and 0.18 mg/mL (corresponding to 7.2 UI/mL) final concentrations, respectively. […] All samples were analyzed after 5 min by interrupting the digestion with temperature shock (4 °C) and extensive dilution (1:20 with cold HPLC mobile phase). Residual DAL was expressed as the percentage of initial DAL as detected by the HPLC method. […]

Compound | Association constant of DAL with host (Ka) [1] | lifetime of the drug tf at room temperature (α-chymotrypsin (CHT) [2]; DAL/CHT mixture kept at 25 °C, tf = time at which non-degraded DAL reached 6%, 1H NMR) | time after which digestion was almost complete (α-chymotrypsin (CHT) [2]; binary mixture DAL/CHT, no host, 1H NMR integrated areas, 37 °C, phosphate buffer pH 6.8, DAL 0.68 mM) | DAL content in the apical chamber after 3 h of incubation (Caco-2 monolayers; Caco-2 monolayers (Transwell, 21–29 days)) | residual DAL in the apical chamber after 3 h of incubation (Caco-2 monolayers; Caco-2 monolayers) | stability of pure DAL in water [3] | reduction of the initial DAL content after 5 min of α-chymotrypsin (α-chymotrypsin (CHT) [4]; freshly prepared solutions, DAL 0.50 mg/mL alone or 1:1 with host, CHT 0.18 mg/mL (7.2 UI/mL), phosphate buffer pH 6.8, 0.4 M, HPLC-UV 227 nm, three independent experiments) | stability of DAL to α-chymotrypsin, lyophilized samples redispersed in buffer (α-chymotrypsin (CHT) [4]; lyophilized DAL alone or 1:1 complex redispersed in PB, CHT 0.18 mg/mL, pH 6.8, 5 min, HPLC)
2-methyl-β-cyclodextrin [MCD] | 120 M⁻¹ |  |  |  |  |  |  | 
CC(C)C[C@H](NC(=O)[C@H](Cc1ccccc1)NC(=O)CNC(=O)[C@@H](C)NC(=O)[C@@H](N)Cc1ccc(O)cc1)C(=O)N[C@@H](CCCNC(=N)N)C(=O)O [DAL, (D-Ala2)-Leu-Enkephalin-Arg] (H-Y[dA]GFLR-OH) |  | 45 min | 14 min | 4.1 to 7.3 µg/mL | 8%–15% | stable | 80% | rapidly degraded
